# Test results published in US10988477B2 (Merck Patent GmbH, priority 2018, dated 2021).
# How the values were obtained:
# [1] = target: intracellular GCN2 (phosphorylation of the GCN2 substrate eIF2α) (Homo sapiens, UniProt Q9P2K8); test: GCN2 cellular inhibition assay (AlphaScreen SureFire P-eIF2α Ser51, borrelidin-treated U2OS cells); assay type: cell-based; details: compounds of Formula IV; biomarker assay, phosphorylated eIF2α Ser51 in borrelidin-treated U2OS cells
# How it was run: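 U2OS cells, adhered overnight, received compounds in 4-fold serial dilutions from 40 μM final, then 10 μM borrelidin for 1 h at 37 °C. Lysates were read by AlphaScreen for phospho-eIF2α Ser51; percent inhibition was set against borrelidin-only wells.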
# GCN2 kinase = GCN2 kinase (Homo sapiens, UniProt Q9P2K8); test: GCN2 enzyme inhibition assay (Transcreener ADP2 fluorescence polarization); assay type: biochemical; details: Enzyme activity for compounds of Formula IV; Ki(app), 280 μM ATP, 25° C.
# Chain of GCN2 kinase (Q9P2K8 whole entry): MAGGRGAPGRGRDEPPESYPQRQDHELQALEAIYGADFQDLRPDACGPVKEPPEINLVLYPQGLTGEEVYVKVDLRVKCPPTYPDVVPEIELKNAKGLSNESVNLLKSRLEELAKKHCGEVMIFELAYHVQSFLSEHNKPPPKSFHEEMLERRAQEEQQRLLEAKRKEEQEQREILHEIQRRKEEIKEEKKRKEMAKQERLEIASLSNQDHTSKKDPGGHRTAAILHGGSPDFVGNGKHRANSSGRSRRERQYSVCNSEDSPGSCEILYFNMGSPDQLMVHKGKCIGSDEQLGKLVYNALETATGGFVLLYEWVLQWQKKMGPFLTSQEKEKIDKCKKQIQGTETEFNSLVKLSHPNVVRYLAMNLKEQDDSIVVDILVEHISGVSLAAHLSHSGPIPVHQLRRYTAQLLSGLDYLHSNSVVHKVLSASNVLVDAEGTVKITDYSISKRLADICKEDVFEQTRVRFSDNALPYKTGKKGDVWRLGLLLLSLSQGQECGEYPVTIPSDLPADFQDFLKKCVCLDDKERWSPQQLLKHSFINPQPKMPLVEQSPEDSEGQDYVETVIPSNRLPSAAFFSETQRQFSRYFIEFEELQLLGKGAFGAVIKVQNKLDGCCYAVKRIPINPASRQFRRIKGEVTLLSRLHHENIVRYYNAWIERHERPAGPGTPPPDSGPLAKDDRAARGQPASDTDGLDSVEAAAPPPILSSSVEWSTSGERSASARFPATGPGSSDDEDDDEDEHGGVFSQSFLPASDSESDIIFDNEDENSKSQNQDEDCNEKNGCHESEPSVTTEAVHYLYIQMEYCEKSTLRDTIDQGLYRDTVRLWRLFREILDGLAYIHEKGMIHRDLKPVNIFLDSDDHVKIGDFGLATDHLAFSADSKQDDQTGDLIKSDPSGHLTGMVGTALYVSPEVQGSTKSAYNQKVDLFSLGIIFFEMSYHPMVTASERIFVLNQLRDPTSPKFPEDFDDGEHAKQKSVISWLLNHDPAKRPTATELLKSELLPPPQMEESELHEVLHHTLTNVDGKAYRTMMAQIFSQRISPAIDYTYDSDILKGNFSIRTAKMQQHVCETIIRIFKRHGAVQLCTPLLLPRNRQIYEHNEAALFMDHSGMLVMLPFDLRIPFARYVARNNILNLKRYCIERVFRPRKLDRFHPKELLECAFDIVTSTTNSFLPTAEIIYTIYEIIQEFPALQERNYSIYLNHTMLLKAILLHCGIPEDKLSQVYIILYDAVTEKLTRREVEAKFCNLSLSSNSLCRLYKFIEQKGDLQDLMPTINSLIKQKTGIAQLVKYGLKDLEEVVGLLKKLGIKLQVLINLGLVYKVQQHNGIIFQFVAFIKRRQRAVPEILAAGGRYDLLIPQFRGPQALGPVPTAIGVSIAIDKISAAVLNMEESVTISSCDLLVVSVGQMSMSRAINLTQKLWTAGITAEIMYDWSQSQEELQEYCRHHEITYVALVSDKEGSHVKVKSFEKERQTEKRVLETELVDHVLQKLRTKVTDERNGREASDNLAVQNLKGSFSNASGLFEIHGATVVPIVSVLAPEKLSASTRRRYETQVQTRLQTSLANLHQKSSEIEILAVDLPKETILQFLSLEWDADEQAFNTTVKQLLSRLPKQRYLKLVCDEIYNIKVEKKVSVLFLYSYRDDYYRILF
# How it was run: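 Human GCN2 (4 nM) preincubated 10 min with compound (0–8 μM) and 200 μM (RS)7 peptide in Tris-HCl pH 7.5, NaCl, MgCl2, DTT. Reaction started with 280 μM ATP, run 1 h at 25 °C. ADP detected by Transcreener fluorescence polarization. IC50 and Ki(app) fitted by tight-binding algorithm.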
# Chain of intracellular GCN2 (phosphorylation of the GCN2 substrate eIF2α) (Q9P2K8 whole entry): as above
Compound,IC50 [1],Ki (GCN2 kinase)
"CS(C)(=O)=NC1CC(c2cn[nH]c2)CN(c2ccnc(-c3cnc4cnc(C(F)(F)F)cn34)n2)C1 (single isomer, unassigned) [IV-400, ((5-(1H-Pyrazol-4-yl)-1-(2-(6-(trifluoromethyl)imidazo[1,2-a]pyrazin-3-yl)pyrimidin-4-yl)piperidin-3-yl)imino)dimethyl-λ^6-sulfanone]",> 5 µM,10 to 100 nM
"CC1CN(c2ccnc(-c3cnc4cnc(C(F)(F)F)cn34)n2)CC(c2c[nH]cn2)O1 (single isomer, unassigned) [IV-406, 2-(1H-Imidazol-4-yl)-6-methyl-4-(2-(6-(trifluoromethyl)imidazo[1,2-a]pyrazin-3-yl)pyrimidin-4-yl)morpholine]",> 5 µM,10 to 100 nM
"CC1CN(c2nccc(-c3cnc4cnc(Cl)cn34)n2)C(C)C(c2cn[nH]c2)N1 (single isomer, unassigned) [IV-408, 6-Chloro-3-(2-(2,5-dimethyl-3-(1H-pyrazol-4-yl)piperazin-1-yl)pyrimidin-4-yl)imidazo[1,2-a]pyrazine]",> 5 µM,100 to 1000 nM
"CC1CN(c2ccnc(-c3cnc4cnc(C(F)(F)F)cn34)n2)C(C)C(c2cn[nH]c2)O1 (single isomer, unassigned) [IV-450, 3,6-Dimethyl-2-(1H-pyrazol-4-yl)-4-(2-(6-(trifluoromethyl)imidazo[1,2-a]pyrazin-3-yl)pyrimidin-4-yl)morpholine]",0.5 to 5 µM,100 to 1000 nM
"Cc1[nH]ncc1C1CN(c2ccnc(-c3cnc4cnc(C(F)(F)F)cn34)n2)CC(C)N1 (single isomer, unassigned) [IV-458, 3-(4-(3-Methyl-5-(5-methyl-1H-pyrazol-4-yl)piperazin-1-yl)pyrimidin-2-yl)-6-(trifluoromethyl)imidazo[1,2-a]pyrazine]",> 5 µM,100 to 1000 nM
"Cc1[nH]ncc1C1CN(c2ccnc(-c3cnc4cnc(C(F)(F)F)cn34)n2)CC(C)N1 (single isomer, unassigned) [IV-459, 3-(4-(3-Methyl-5-(5-methyl-1H-pyrazol-4-yl)piperazin-1-yl)pyrimidin-2-yl)-6-(trifluoromethyl)imidazo[1,2-a]pyrazine]",0.5 to 5 µM,10 to 100 nM
"CC1CN(c2ccnc(-c3cnc4cnc(C(F)(F)F)cn34)n2)CC(c2cn[nH]c2)N1 (single isomer, unassigned) [IV-460, 3-(4-(3-Methyl-5-(1H-pyrazol-4-yl)piperazin-1-yl)pyrimidin-2-yl)-6-(trifluoromethyl)imidazo[1,2-a]pyrazine]",0.5 to 5 µM,100 to 1000 nM
"CC1CN(c2ccnc(-c3cnc4cnc(C(F)(F)F)cn34)n2)CC(c2cn[nH]c2)N1 (single isomer, unassigned) [IV-461, 3-(4-(3-Methyl-5-(1H-pyrazol-4-yl)piperazin-1-yl)pyrimidin-2-yl)-6-(trifluoromethyl)imidazo[1,2-a]pyrazine]",0.5 to 5 µM,10 to 100 nM
"Cc1[nH]ncc1C1CN(c2ccnc(-c3cnc4cnc(C(F)F)cn34)n2)CC(C)N1 (single isomer, unassigned) [IV-462, 6-(Difluoromethyl)-3-(4-(3-methyl-5-(5-methyl-1H-pyrazol-4-yl)piperazin-1-yl)pyrimidin-2-yl)imidazo[1,2-a]pyrazine]",> 5 µM,100 to 1000 nM
"Cc1[nH]ncc1C1CN(c2ccnc(-c3cnc4cnc(C(F)F)cn34)n2)CC(C)N1 (single isomer, unassigned) [IV-463, 6-(Difluoromethyl)-3-(4-(3-methyl-5-(5-methyl-1H-pyrazol-4-yl)piperazin-1-yl)pyrimidin-2-yl)imidazo[1,2-a]pyrazine]",> 5 µM,100 to 1000 nM
"Cc1n[nH]c(C)c1C1CN(c2ccnc(-c3cnc4cnc(C(F)(F)F)cn34)n2)CC(C)N1 (single isomer, unassigned) [IV-465, 3-(4-(3-(3,5-Dimethyl-1H-pyrazol-4-yl)-5-methylpiperazin-1-yl)pyrimidin-2-yl)-6-(trifluoromethyl)imidazo[1,2-a]pyrazine]",0.5 to 5 µM,10 to 100 nM
"Cc1n[nH]c(C)c1C1CN(c2ccnc(-c3cnc4cnc(C(F)(F)F)cn34)n2)CC(C)N1 (single isomer, unassigned) [IV-467, 3-(4-(3-(3,5-Dimethyl-1H-pyrazol-4-yl)-5-methylpiperazin-1-yl)pyrimidin-2-yl)-6-(trifluoromethyl)imidazo[1,2-a]pyrazine]",> 5 µM,100 to 1000 nM
"Cc1n[nH]cc1C1CCCN(c2ccnc(-c3cnc4cnc(C(F)F)cn34)n2)C1 (single isomer, unassigned) [IV-468, 6-(Difluoromethyl)-3-(4-(3-(3-methyl-1H-pyrazol-4-yl)piperidin-1-yl)pyrimidin-2-yl)imidazo[1,2-a]pyrazine]",0.5 to 5 µM,10 to 100 nM

# Further lines, results first:
IC50 [1],Ki (GCN2 kinase),Compound
0.5 to 5 µM,< 10 nM,"CC1CN(c2ccnc(-c3cnc4cnc(Br)cn34)n2)C(C)C(c2c[nH]cn2)N1 (single isomer, unassigned) [IV-376, 3-(4-(3-(1H-Imidazol-4-yl)-2,5-dimethylpiperazin-1-yl)pyrimidin-2-yl)-6-bromoimidazo[1,2-a]pyrazine]"
0.5 to 5 µM,100 to 1000 nM,"CC1CN(c2ccnc(-c3cnc4cnc(Br)cn34)n2)C(C)C(c2c[nH]cn2)N1 (single isomer, unassigned) [IV-377, 3-(4-(3-(1H-Imidazol-4-yl)-2,5-dimethylpiperazin-1-yl)pyrimidin-2-yl)-6-bromoimidazo[1,2-a]pyrazine]"
0.5 to 5 µM,< 10 nM,"CS(C)(=O)=NC1CC(c2cn[nH]c2)CN(c2ccnc(-c3cnc4cnc(C(F)(F)F)cn34)n2)C1 (single isomer, unassigned) [IV-399, ((5-(1H-Pyrazol-4-yl)-1-(2-(6-(trifluoromethyl)imidazo[1,2-a]pyrazin-3-yl)pyrimidin-4-yl)piperidin-3-yl)imino)dimethyl-λ^6-sulfanone]"
0.5 to 5 µM,10 to 100 nM,"CCN1CCN(c2ccnc(-c3cnc4cnc(Br)cn34)n2)[C@@H](C)[C@H]1c1cn[nH]c1 (single isomer, unassigned) [IV-401, Cis-6-Bromo-3-(4-(4-ethyl-2-methyl-3-(1H-pyrazol-4-yl)piperazin-1-yl)pyrimidin-2-yl)imidazo[1,2-a]pyrazine]"
< 0.5 µM,< 10 nM,"CCN1CCN(c2ccnc(-c3cnc4cnc(Br)cn34)n2)[C@@H](C)[C@H]1c1cn[nH]c1 (single isomer, unassigned) [IV-402, Cis-6-Bromo-3-(4-(4-ethyl-2-methyl-3-(1H-pyrazol-4-yl)piperazin-1-yl)pyrimidin-2-yl)imidazo[1,2-a]pyrazine]"
< 0.5 µM,< 10 nM,"CC1CN(c2nccc(-c3cnc4cnc(Br)cn34)n2)C(C)C(c2cn[nH]c2)N1 (single isomer, unassigned) [IV-403, 6-Bromo-3-(2-(2,5-dimethyl-3-(1H-pyrazol-4-yl)piperazin-1-yl)pyrimidin-4-yl)imidazo[1,2-a]pyrazine]"
0.5 to 5 µM,100 to 1000 nM,"CC1CN(c2nccc(-c3cnc4cnc(Br)cn34)n2)C(C)C(c2cn[nH]c2)N1 (single isomer, unassigned) [IV-404, 6-Bromo-3-(2-(2,5-dimethyl-3-(1H-pyrazol-4-yl)piperazin-1-yl)pyrimidin-4-yl)imidazo[1,2-a]pyrazine]"
< 0.5 µM,< 10 nM,"CC1CN(c2ccnc(-c3cnc4cnc(C(F)(F)F)cn34)n2)CC(c2c[nH]cn2)O1 (single isomer, unassigned) [IV-405, 2-(1H-Imidazol-4-yl)-6-methyl-4-(2-(6-(trifluoromethyl)imidazo[1,2-a]pyrazin-3-yl)pyrimidin-4-yl)morpholine]"
0.5 to 5 µM,< 10 nM,"CC1CN(c2nccc(-c3cnc4cnc(Cl)cn34)n2)C(C)C(c2cn[nH]c2)N1 (single isomer, unassigned) [IV-407, 6-Chloro-3-(2-(2,5-dimethyl-3-(1H-pyrazol-4-yl)piperazin-1-yl)pyrimidin-4-yl)imidazo[1,2-a]pyrazine]"
0.5 to 5 µM,10 to 100 nM,"CC1C(c2cn[nH]c2)NCCN1c1ccnc(-c2cnc3cnc(Br)cn23)n1 (single isomer, unassigned) [IV-413, 6-Bromo-3-(4-(2-methyl-3-(1H-pyrazol-4-yl)piperazin-1-yl)pyrimidin-2-yl)imidazo[1,2-a]pyrazine]"
< 0.5 µM,< 10 nM,"CC1C(c2cn[nH]c2)NCCN1c1ccnc(-c2cnc3cnc(Br)cn23)n1 (single isomer, unassigned) [IV-414, 6-Bromo-3-(4-(2-methyl-3-(1H-pyrazol-4-yl)piperazin-1-yl)pyrimidin-2-yl)imidazo[1,2-a]pyrazine]"
0.5 to 5 µM,100 to 1000 nM,"CC1C(c2cn[nH]c2)CCCN1c1ccnc(-c2cnc3cnc(C(F)(F)F)cn23)n1 (single isomer, unassigned) [IV-419, 3-(4-(2-Methyl-3-(1H-pyrazol-4-yl)piperidin-1-yl)pyrimidin-2-yl)-6-(trifluoromethyl)imidazo[1,2-a]pyrazine]"
< 0.5 µM,< 10 nM,"CC1C(c2cn[nH]c2)CCCN1c1ccnc(-c2cnc3cnc(C(F)(F)F)cn23)n1 (single isomer, unassigned) [IV-420, 3-(4-(2-Methyl-3-(1H-pyrazol-4-yl)piperidin-1-yl)pyrimidin-2-yl)-6-(trifluoromethyl)imidazo[1,2-a]pyrazine]"
< 0.5 µM,< 10 nM,"CC1CN(c2ccnc(-c3cnc4cnc(C(F)(F)F)cn34)n2)C(C)C(c2cn[nH]c2)O1 (single isomer, unassigned) [IV-451, 3,6-Dimethyl-2-(1H-pyrazol-4-yl)-4-(2-(6-(trifluoromethyl)imidazo[1,2-a]pyrazin-3-yl)pyrimidin-4-yl)morpholine]"
